Among the data in US10633389B2, “CARM1 inhibitors and uses thereof” (Epizyme, Inc., priority 2013, dated 2020) are IC50 values, retold here.

Each structure is given as a SMILES string.

The assay relates to asymmetric di-methyl PABP1 in RKO cells. As to the kind of experiment: RKO methylation assay, In Cell Western (ICW) for asymmetric di-methyl PABP1. It counts as cell-based. The note with it: Homo sapiens, RKO, Cellular potencies, ICW PABP1me2a. The essentials:
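In-cell Western on fixed RKO cells after 48 h compound exposure: anti-asymmetric di-methyl PABP1 signal at 800 nm over DRAQ5 DNA signal at 700 nm. Percent inhibition set between DMSO wells and wells with 20 μM reference compound; IC50 curves fitted in triplicate.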
What is called IC50 is the concentration needed to halve the response being measured. Compound `CC[C@H]1CN(c2nc(-c3cccc(OCC(O)CNC)c3)nc(-c3c(C)noc3C)c2C)CCN1C1CC1` (stereo partly drawn) [Example 178-1a] yielded an IC50 of 10 to 20 µM. The same measure for `CNCC(O)COc1cccc(-c2nc(N[C@@H]3CCN(C4CC4)C[C@@H]3F)c(C)c(-c3c(C)noc3C)n2)c1` (stereo partly drawn) [Example 260-1a]: under 5 µM. `CNCC(O)COc1cccc(-c2nc(-c3cnc4ncccn34)cc(N(C)C3CCOCC3)n2)c1` (stereo not drawn) [Example 489-1a] came in with an IC50 of under 5 µM.

`CNCC(O)COc1cccc(-c2nc(NC[C@H]3COCCN3C(=O)N(C)C)c(C)c(-c3c(C)noc3C)n2)c1` (stereo partly drawn) [Example 258-1a] had a 50% inhibitory concentration (IC50) of 5 to 10 µM.

On to `CNC[C@@H](O)COc1ccc(Cl)c(-c2nc(-c3c(C)noc3C)c(C)c(N3CC4(CCCCO4)C3)n2)c1` [Example 290-3], for which the IC50 was under 5 µM.

The compound `CNC[C@@H](O)COc1ccc(Cl)c(-c2nc(NC3CC(C)C3)c(C)c(-c3c(C)noc3C)n2)c1` (stereo partly drawn) [Example 230-3] registered a half-inhibitory concentration (IC50) of under 5 µM. For `CNCC(O)COc1cccc(-c2nc(N[C@@H]3CCNC[C@@H]3F)c(C)c(-c3c(C)noc3C)n2)c1` (stereo partly drawn) [Example 224-1a] the value was under 5 µM; for `CNCC(O)COc1cccc(-c2nc(Nc3ncc(C)cn3)cc(N(C)C3CCOCC3)n2)c1` (stereo not drawn) [Example 513-1a], 5 to 10 µM; for `CNC[C@@H](O)COc1ccc(Cl)c(-c2nc(-c3c(C)noc3C)c(C)c(N3Cc4cccc(F)c4C3)n2)c1` [Example 267-3], under 5 µM. For `CNCC(O)COc1cccc(-c2nc(C(=O)NC3CCOCC3)c(C)c(C(=O)NC3CCOCC3)n2)c1` (stereo not drawn) [Example 677-1a] the value was at least 20 µM. For `CNCC(O)COc1cccc(-c2nc(NC3(C(F)(F)F)CC3)c(C)c(-c3c(C)noc3C)n2)c1` (stereo not drawn) [Example 8-3] the value was under 5 µM. In turn, `CNCC(O)COc1cccc(-c2nc(OC3CCOCC3)c(C)c(-c3c(C)noc3C)n2)c1` (stereo not drawn) [Example 181-1a] came in with an IC50 of under 5 µM.

With `CNCC(O)COc1cccc(-c2nc(N[C@H]3C[C@@H](C(C)(C)O)C3)c(C)c(-c3c(C)noc3C)n2)c1` (stereo partly drawn) [Example 232-1a], the IC50 is under 5 µM. `CNC[C@H](O)COc1ccc(Cl)c(-c2nc(N[C@H]3C[C@@H](OC)C3)c(C)c(-c3c(C)noc3C)n2)c1` [Example 54-3] had a 50% inhibitory concentration (IC50) of under 5 µM.

For `CNCC(O)COc1cccc(-c2nc(OCC3CCNCC3)c(C)c(-c3c(C)noc3C)n2)c1` (stereo not drawn) [Example 289-1a], the IC50 lay within 5 to 10 µM. For `CCOC(=O)N1CCOC[C@H]1CNc1nc(-c2cc(OC[C@H](O)CNC)ccc2Cl)nc(-c2c(C)noc2C)c1C` [Example 25-3] the value was under 5 µM; for `CNC[C@@H](O)COc1ccc(Cl)c(-c2nc(-c3c(C)noc3C)c(C)c(N3Cc4cncnc4C3)n2)c1` [Example 190-3], under 5 µM; for `CNCC(O)COc1cccc(-c2nc(-c3ccnc(C)c3)cc(N(C)C3CCOCC3)n2)c1` (stereo not drawn) [Example 40-1], 5 to 10 µM. For `CC[C@H]1CN(c2cc(N(C)C3CCOCC3)nc(-c3cccc(OCC(O)CNC)c3)n2)CCN1` (stereo partly drawn) [Example 505-1a] the value was under 5 µM; for `CCNC(=O)N1CCN(c2nc(-c3cccc(OCC(O)CNC)c3)nc(-c3c(C)noc3C)c2C)CC1` (stereo not drawn) [Example 106-1a], 5 to 10 µM; for `CNC[C@@H](O)COc1ccc(Cl)c(-c2nc(N[C@@H]3CO[C@H](C)C3)c(Cl)c(-c3c(C)noc3C)n2)c1` [Example 180-3], under 5 µM. For `CNCC(O)COc1cccc(-c2nc(N[C@@H]3CCOC3)cc(-c3c(C)noc3C)n2)c1` (stereo partly drawn) [Example 11-1a] the value was 5 to 10 µM; for `CNC[C@@H](O)COc1ccc(Cl)c(-c2nc(-c3c(C)noc3C)c(C)c(N3CC4(CCOC4)C3)n2)c1` [Example 120-3], under 5 µM; for `CNCC(O)COc1cccc(-c2nc(NCC3CCN(C(=O)N(C)C)CC3)c(C)c(-c3c(C)noc3C)n2)c1` (stereo not drawn) [Example 248-1a], under 5 µM. Compound `CNCC(O)COc1cccc(-c2nc(NC3(C)CCOCC3)cc(-c3c(C)noc3C)n2)c1` (stereo not drawn) [Example 85-1a] had an IC50 of under 5 µM. `CNCC(O)COc1cccc(-c2nc(-c3c(C)noc3C)c(C)c(N3CC[C@@H](S(C)(=O)=O)C3)n2)c1` (stereo partly drawn) [Example 111-1a] yielded an IC50 of 5 to 10 µM. The same measure for `CNC[C@@H](O)COc1ccc(Cl)c(-c2nc(NC[C@H]3CCCO3)c(Cl)c(-c3c(C)noc3C)n2)c1` [Example 215-3]: under 5 µM; for `CNC[C@@H](O)COc1cccc(-c2nc(-c3c(C)noc3C)c(C)c(-c3cn(S(C)(=O)=O)c4ncncc34)n2)c1` [Example 156-1a]: 5 to 10 µM. The same measure for `CNCC(O)COc1cc(Cl)cc(-c2nc(NC3CCN(C4CC4)CC3)c(C)c(-c3c(C)noc3C)n2)c1` (stereo not drawn) [Example 22-3]: under 5 µM; for `CNCC(O)COc1cccc(-c2nc(Nc3cncnc3)cc(-c3c(C)noc3C)n2)c1` (stereo not drawn) [Example 21-1a]: 5 to 10 µM. For `CNC[C@@H](O)COc1ccc(Cl)c(-c2nc(N[C@H]3CO[C@@H](C)C3)c(Cl)c(-c3c(C)noc3C)n2)c1` [Example 148-3], the IC50 is under 5 µM. Take `CNCC(O)COc1cccc(-c2nc(-c3c(C)noc3C)c(C)c(N3CCC4(CC3)CN(C(=O)N(C)C)C4)n2)c1` (stereo not drawn) [Example 252-1a]: the IC50 was under 5 µM. For `CCOC(=O)N1CCOC[C@@H]1CNc1nc(-c2cc(OC[C@@H](O)CNC)ccc2F)nc(-c2c(C)noc2C)c1C` [Example 61-3] the value was under 5 µM. For `CCOC(=O)N1CCC(CNc2nc(-c3cccc(OCC(O)CNC)c3)nc(-c3c(C)noc3C)c2C)CC1` (stereo not drawn) [Example 191-1a] the value was under 5 µM. The same measure for `CNCC(O)COc1cccc(-c2nc(N[C@@H]3CCOC3)c(C)c(N3Cc4cccnc4C3)n2)c1` (stereo partly drawn) [Example 394-1a]: under 5 µM; for `CNC[C@@H](O)COc1ccc(Cl)c(-c2nc(-c3c(C)noc3C)c(Cl)c(N3CC4(CCOCC4)C3)n2)c1` [Example 229-3]: under 5 µM.

The compound `CNC[C@H](O)COc1cccc(-c2nc(NC3CCOCC3)c(C)c(-c3c(C)noc3C)n2)c1` [Example 55-1a] came in with an IC50 of under 5 µM. In the case of `CNCC(O)COc1cccc(-c2nc(-c3c(C)noc3C)c(C)c(N3CCC4(CC3)CN(C(=O)OC)C4)n2)c1` (stereo not drawn) [Example 251-1a], the half-maximal inhibitory concentration (IC50) was under 5 µM. The same measure for `CNC[C@@H](O)COc1ccc(Cl)c(-c2nc(N[C@@H]3C[C@@H](C)O[C@@H](C)C3)c(Cl)c(-c3c(C)noc3C)n2)c1` [Example 183-3]: under 5 µM. The same measure for `CNC[C@@H](O)COc1ccc(Cl)c(-c2nc(-c3c(C)noc3C)c(C)c(N3Cc4cnc(C(F)(F)F)nc4C3)n2)c1` [Example 263-3]: under 5 µM; for `CNCC(O)COc1cccc(-c2nc(-c3c(C)noc3C)cc(N3CCN(C(=O)N(C)C)[C@H](C)C3)n2)c1` (stereo partly drawn) [Example 146-1a]: under 5 µM. `CNCC(O)COc1cccc(-c2nc(N[C@@H]3CCOC[C@@H]3F)c(C)c(-c3c(C)noc3C)n2)c1` (stereo partly drawn) [Example 271-1a] gave an IC50 of under 5 µM. Turning to `CNCC(O)COc1cccc(-c2nc(NC3CCS(=O)(=O)CC3)c(C)c(-c3c(C)noc3C)n2)c1` (stereo not drawn) [Example 59-1a], the IC50 is 10 to 20 µM. For `CNCC(O)COc1cccc(-c2nc(N[C@@H]3CCOC3)c(C)c(-c3cncc(C(=O)OC)c3)n2)c1` (stereo partly drawn) [Example 340-1a] the value was 10 to 20 µM.

Regarding `CNCC(O)COc1cccc(-c2nc(NC3CCN(CC(F)F)C3)c(C)c(-c3c(C)noc3C)n2)c1` (stereo not drawn) [Example 195-1a], the half-inhibitory concentration (IC50) was under 5 µM.
